Data taken from patent US12617799B2, “Pyrazolopyrimidinone compounds” (Orphagen Pharmaceuticals, Inc., priority 2021, dated 2026).
Like-named read-outs stand apart in the source and are kept apart here.

Legend:
human SF-1 = target: T1, human SF-1 (Homo sapiens, UniProt Q13285); assay: SF-1 Luc assay (Gal4DBD-SF-1LBD luciferase reporter in transfected CHO-K1 cells); format: cell-based; settings: for EC50: CHO-K1 cells transfected with GAL4-SF-1 plasmid, 40 hours incubation, read-out: hSF-1-Luc: EC50
T1 construct: expressed in transfected cells; host or cells: CHO-K1 cells (Chinese hamster ovary), transient cotransfection with pG5luc
T1 sequence (Q13285 198-461 limits assumed): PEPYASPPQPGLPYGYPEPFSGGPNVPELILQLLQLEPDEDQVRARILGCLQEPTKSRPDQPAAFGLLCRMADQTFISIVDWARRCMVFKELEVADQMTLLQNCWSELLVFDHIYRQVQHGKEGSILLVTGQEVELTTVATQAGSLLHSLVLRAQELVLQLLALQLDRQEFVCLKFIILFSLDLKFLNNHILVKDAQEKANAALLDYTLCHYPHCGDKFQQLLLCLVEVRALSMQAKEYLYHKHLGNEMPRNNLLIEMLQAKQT
From the text: BamHI and XbaI sites introduced by the primers […] (forward) and […] (reverse) were used for subcloning the amplicon into pFA-CMV.
Cells were routinely cultured by splitting them from 1:10 to 1:20. […] Four hours after transfection, cells were trypsinized and suspended to a concentration of 1.6×10^5 cells/ml in supplemented Ham's F-12 media.
Assays: The collected cells were resuspended in the culture medium and plated into a 384 well-white plate (Corning Life Sciences, Acton, MA) at 8,000 cells/50 μL/well.
Measurement of SF-1 Transcriptional Activity: SF-1 transcriptional activity was detected as the intracellular Luc activity using SteadyLite Plus HTS Reporter Gene Assay System. After the measurement of the cell viability, the culture media in the 384 well-plate were completely removed. Then, 30 μL of the Luc substrate solution was added into each well and incubated for 10 min at room temperature. After the incubation, luminescence of each well was measured by a microplate reader.
Calculation of the SF-1 Transcriptional Activity (% of Control): The % of control for the transcriptional activity was calculated according to the following equation: % of control=A/B×100 Equation • A: luminescence count in the test article-treated CHO cells transfected with GAL4-SF-1 plasmid • B: mean luminescence count in the vehicle-treated CHO cells transfected with GAL4-SF-1 plasmid

[1] = system: rat Leydig tumor cell line R2C; assay: R2C proliferation assay for SF-1 antagonists (EdU incorporation); format: cell-based; settings: for EC50: read-out: R2C: EC50; for inhibition at 8 µM: Leydig
Procedure: SF-1 regulates progenitor cell formation and survival in adult Leydig cells. Anti-proliferative effects of SF-1 antagonists using a SF-1+ rat Leydig tumor cell line, R2C, was investigated. Cell proliferation was measured by detecting DNA incorporation of EdU, a nucleoside analogue that can be fluorescently tagged after cell fixation.
Proliferation of the rat Leydig tumor cell line R2C (ATCC® CCL-97™) was assessed using 5-ethynyl-2′-deoxyuridine (EdU), a nucleoside analogue incorporated during DNA synthesis that can be fluorescently tagged after cell fixation. Cycloheximide, a protein synthesis inhibitor, was used as a positive control for the assay.
R2C cells are maintained according to a protocol provided by the American Type Culture Collection (ATCC). At the time of assay, R2C cells were diluted to 1.0 million cells/mL with culture medium (F12 medium supplemented with 2% FBS and 1% Penicillin-Streptomycin) and 50 uL of cell suspension seeded into each well of 384-well clear bottom plates. The assay plates were incubated in a humidified, 37° C., 6% CO2 atmosphere for 24 hours. Serially diluted SF-1 antagonists, cycloheximide or vehicle (DMSO) were then applied to the R2C cells and incubated in a humidified, 37° C., 6% CO2 atmosphere for two days. EdU (Invitrogen), at a final concentration of 5 μM, was added to the cells and incubated for an additional 16 hours, after which cells were fixed with 10% formalin.
Cells were then washed and permeabilized in 0.5% TritonX-100/PBS solution at RT for 1 hour. EdU incorporation was detected by labeling EdU with 6-FAM azide (Lumiprobe) using a copper (I)-catalyzed Click reaction between an azide and alkyne. The reaction mixture consists of 5 mM ascorbic acid, 1 mM CuSO4, 1 μM 6-FAM azide dissolved in PBS buffer. […] For data normalization, the average fluorescence of DMSO wells was defined as 100%, and average fluorescence of 10 μM cycloheximide wells was defined as 0%. Curve fitting and EC50 determination were performed using the variable slope sigmoidal dose-response analysis.
R2C cells were routinely cultured in R2C culture medium. To assay SF-1 antagonist inhibitory activity, R2C cells were resuspended in the R2C plating medium and plated into a 384 well-clear bottom black plate at 20,000 cells/50 μL/well. […] 10 μL EdU plating solution were then dispensed into each well of assay plate incubated at 37° C., 6% CO2 for two days.
R2C proliferation is measured by detecting the fluorescent labelled EdU. The R2C assay plates were fixed by dispense 60 μL of 10% formalin into each well, and the plates were incubated at room temperature for 1 hour on an orbital shaker. The plates were washed with 80 μL of PBS three times, and cells were permeabilized by treating with 100 μL of PBS-0.5% TritonX-100 at RT for 1 hour on an orbital shaker. The plates were washed with 80 μL of PBS three times, and after the last wash, 25 μL of PBS was dispensed into each well. 25 μL of 2× mounting mix solution was then added into each well of fixed cells, and the plates were incubated at RT for 30 min in the dark on an orbital shaker. The cells were washed with 80 μL of PBS, three times, and after the last wash, 25 μL of PBS was dispensed into each well. […] The cells were washed with 80 μL of PBS, three times, and after the last wash, 50 μL of PBS was dispensed into each well. Assay plates were sealed with aluminum foil, and fluorescence was measured using a Envision microplate reader.
The % of control for the proliferation activity was calculated according to the following equation: % of control=100×(A−C)/(B−C) Equation • A: fluorescence count in the test article-treated R2C cells • B: mean fluorescence count in the vehicle-treated R2C cells • C: mean fluorescence count in the 10 μM cycloheximide-treated R2C cells

SMILES | EC50 (human SF-1) [nM] | EC50 ([1]; R2C cells, EdU incorporation) [nM] | inhibition at 8 µM (human SF-1; CHO-K1, read-out: hSF-1-Luc: inhibition at 8 uM) [%] | EC50 ([1]; R2C) [nM] | inhibition at 8 µM [1] [%]
COc1ccc(NC(=O)Cn2cnc3c(Nc4ccc(C(F)(F)F)cc4)nn(C(C)C)c3c2=O)cc1F [Compound 98, N-(3-fluoro-4-methoxyphenyl)-2-(1-isopropyl-7-oxo-3-((4-(trifluoromethyl)phenyl)amino)-1,7-dihydro-6H-pyrazolo[4,3-d]pyrimidin-6-yl)acetamide] | 200 to 1000 | – | – | 1000 to 10000 | –
Cn1nc(Nc2ccc(C(F)(F)F)cc2)c2ncn(CC(=O)Nc3ccc(C(C)(C)C(=O)O)cc3)c(=O)c21 [Compound 19, 2-methyl-2-(4-(2-(1-methyl-7-oxo-3-((4-(trifluoromethyl)phenyl)amino)-1,7-dihydro-6H-pyrazolo[4,3-d]pyrimidin-6-yl)acetamido)phenyl)propanoic acid] | 200 to 1000 | 200 to 1000 | – | – | –
C[C@H](CO)Oc1ccc(NC(=O)Cn2cnc3c(Nc4ccc(C(F)(F)F)cc4)nn(C)c3c2=O)cc1 (single isomer, unassigned) [Compound 25] | < 200 | < 200 | – | – | –
CCn1nc(Nc2ccc(C(F)(F)F)cc2)c2ncn(CC(=O)Nc3ccc(OC)c(F)c3)c(=O)c21 [Compound 77, 2-(1-ethyl-7-oxo-3-((4-(trifluoromethyl)phenyl)amino)-1,7-dihydro-6H-pyrazolo[4,3-d]pyrimidin-6-yl)-N-(3-fluoro-4-methoxyphenyl)acetamide] | < 200 | – | – | < 200 | –
COc1ccc(NC(=O)Cn2cnc3c(Nc4ccc(C(F)(F)F)cn4)n[nH]c3c2=O)cc1F [Compound 63, N-(3-fluoro-4-methoxyphenyl)-2-(7-oxo-3-((5-(trifluoromethyl)pyridin-2-yl)amino)-1,7-dihydro-6H-pyrazolo[4,3-d]pyrimidin-6-yl)acetamide] | – | – | 75 | – | 19
Cn1nc(Nc2ccc(C(F)(F)F)cc2)c2ncn(CC(=O)N[C@@H]3CCC[C@H](OC(F)F)C3)c(=O)c21 (single isomer, unassigned) [Compound 49] | < 200 | – | – | < 200 | –
Cc1cc(C(C)(C)S(C)(=O)=O)ccc1NC(=O)Cn1cnc2c(Nc3ccc(C(F)(F)F)cc3)nn(C)c2c1=O [Compound 18, N-(2-methyl-4-(2-(methylsulfonyl)propan-2-yl)phenyl)-2-(1-methyl-7-oxo-3-((4-(trifluoromethyl)phenyl)amino)-1,7-dihydro-6H-pyrazolo[4,3-d]pyrimidin-6-yl)acetamide] | < 200 | < 200 | – | – | –
CCn1nc(Nc2ccc(C(F)(F)F)cc2)c2ncn(CC(=O)N[C@H]3CC[C@H](OCC(C)(C)O)CC3)c(=O)c21 [Compound 84, 2-(1-ethyl-7-oxo-3-((4-(trifluoromethyl)phenyl)amino)-1,7-dihydro-6H-pyrazolo[4,3-d]pyrimidin-6-yl)-N-((1r,4r)-4-(2-hydroxy-2-methylpropoxy)cyclohexyl)acetamide] | < 200 | – | – | < 200 | –
Cn1nc(Nc2ccc(C(F)(F)F)cc2)c2ncn(CC(=O)N[C@H]3CC[C@@H](OC(F)F)CC3)c(=O)c21 [Compound 36, N-((1s,4s)-4-(difluoromethoxy)cyclohexyl)-2-(1-methyl-7-oxo-3-((4-(trifluoromethyl)phenyl)amino)-1,7-dihydro-6H-pyrazolo[4,3-d]pyrimidin-6-yl)acetamide] | < 200 | – | – | 200 to 1000 | –

Further lines, with some results ahead:

EC50 (human SF-1) [nM] | EC50 ([1]; R2C cells, EdU incorporation) [nM] | inhibition at 8 µM (human SF-1; CHO-K1, read-out: hSF-1-Luc: inhibition at 8 uM) [%] | SMILES | EC50 ([1]; R2C) [nM] | inhibition at 8 µM [1] [%]
1000 to 10000 | – | – | Cn1nc(Nc2ccc(C(F)(F)F)cn2)c2ncn(CC(=O)N[C@H]3CC[C@H](OCC(C)(C)O)CC3)c(=O)c21 [Compound 52, N-((1r,4r)-4-(2-hydroxy-2-methylpropoxy)cyclohexyl)-2-(1-methyl-7-oxo-3-((5-(trifluoromethyl)pyridin-2-yl)amino)-1,7-dihydro-6H-pyrazolo[4,3-d]pyrimidin-6-yl)acetamide] | – | 72
200 to 1000 | 1000 to 10000 | – | Cn1nc(Nc2ccc(C(F)(F)F)nc2)c2ncn(CC(=O)N[C@H]3CC[C@H](OCC(C)(C)O)CC3)c(=O)c21 [Compound 68, N-((1r,4r)-4-(2-hydroxy-2-methylpropoxy)cyclohexyl)-2-(1-methyl-7-oxo-3-((6-(trifluoromethyl)pyridin-3-yl)amino)-1,7-dihydro-6H-pyrazolo[4,3-d]pyrimidin-6-yl)acetamide] | – | –
< 200 | 200 to 1000 | – | Cn1nc(Nc2ccc(C(F)(F)F)cc2)c2ncn(CC(=O)NCC3CCOCC3)c(=O)c21 [Compound 14, 2-(1-methyl-7-oxo-3-((4-(trifluoromethyl)phenyl)amino)-1,7-dihydro-6H-pyrazolo[4,3-d]pyrimidin-6-yl)-N-((tetrahydro-2H-pyran-4-yl)methyl)acetamide] | – | –
< 200 | < 200 | – | Cn1nc(Nc2ccc(C(F)(F)F)cc2)c2ncn(CC(=O)N[C@H]3CC[C@H](C(C)(C)CO)CC3)c(=O)c21 [Compound 27, N-((trans)-4-(1-hydroxy-2-methylpropan-2-yl)cyclohexyl)-2-(1-methyl-7-oxo-3-((4-(trifluoromethyl)phenyl)amino)-1,7-dihydro-6H-pyrazolo[4,3-d]pyrimidin-6-yl)acetamide] | – | –
200 to 1000 | 1000 to 10000 | – | Cn1nc(Nc2ccc(C(F)(F)F)cn2)c2ncn(CC(=O)N[C@H]3CC[C@H](OC(F)F)CC3)c(=O)c21 [Compound 55, N-((1r,4r)-4-(difluoromethoxy)cyclohexyl)-2-(1-methyl-7-oxo-3-((5-(trifluoromethyl)pyridin-2-yl)amino)-1,7-dihydro-6H-pyrazolo[4,3-d]pyrimidin-6-yl)acetamide] | – | –
200 to 1000 | 1000 to 10000 | – | Cn1nc(Nc2ccc(C(F)(F)F)cc2)c2ncn(CC(=O)NC(C)(C)C3CCOCC3)c(=O)c21 [Compound 15, 2-(1-methyl-7-oxo-3-((4-(trifluoromethyl)phenyl)amino)-1,7-dihydro-6H-pyrazolo[4,3-d]pyrimidin-6-yl)-N-(2-(tetrahydro-2H-pyran-4-yl)propan-2-yl)acetamide] | – | –
200 to 1000 | 1000 to 10000 | – | Cn1nc(Nc2ccc(C(F)(F)F)cc2)c2ncn(CC(=O)N[C@H]3CC[C@H](O)CC3)c(=O)c21 [Compound 28, N-((trans)-4-hydroxycyclohexyl)-2-(1-methyl-7-oxo-3-((4-(trifluoromethyl)phenyl)amino)-1,7-dihydro-6H-pyrazolo[4,3-d]pyrimidin-6-yl)acetamide] | – | –
< 200 | < 200 | – | C[C@@H](O)CO[C@H]1CC[C@H](NC(=O)Cn2cnc3c(Nc4ccc(C(F)(F)F)cc4)nn(C)c3c2=O)CC1 [Compound 23, N-((1R,4r)-4-((R)-2-hydroxypropoxy)cyclohexyl)-2-(1-methyl-7-oxo-3-((4-(trifluoromethyl)phenyl)amino)-1,7-dihydro-6H-pyrazolo[4,3-d]pyrimidin-6-yl)acetamide] | – | –
